Experimental data reported in patent US12384776B2, “Compounds and uses thereof” (Foghorn Therapeutics Inc., priority 2019, dated 2025).

Target: Nanoluciferase-BRD9 fusion protein (3×FLAG-NLuc-BRD9) in SYO-1 cells (Homo sapiens (Human), UniProt Q9H8M2)
Assay: SYO1 BRD9 NanoLuc degradation assay
Type: cell-based
Conditions: SYO-1 cells expressing 3×FLAG-NLuc-BRD9, 6 hours incubation, top dose 1 μM
Outline: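 Stable SYO-1 line expressing 3×FLAG-NLuc-BRD9, treated with 10-point 3-fold dilutions (top 1 μM final) for 6 hours. Nanoluciferase luminescence read with Nano-Glo reagent. % inhibition relative to DMSO (high control) and 1 μM reference BRD9 degrader (low control).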

Chain of Nanoluciferase-BRD9 fusion protein (3×FLAG-NLuc-BRD9) in SYO-1 cells (Q9H8M2 whole entry, the tested form may be a part): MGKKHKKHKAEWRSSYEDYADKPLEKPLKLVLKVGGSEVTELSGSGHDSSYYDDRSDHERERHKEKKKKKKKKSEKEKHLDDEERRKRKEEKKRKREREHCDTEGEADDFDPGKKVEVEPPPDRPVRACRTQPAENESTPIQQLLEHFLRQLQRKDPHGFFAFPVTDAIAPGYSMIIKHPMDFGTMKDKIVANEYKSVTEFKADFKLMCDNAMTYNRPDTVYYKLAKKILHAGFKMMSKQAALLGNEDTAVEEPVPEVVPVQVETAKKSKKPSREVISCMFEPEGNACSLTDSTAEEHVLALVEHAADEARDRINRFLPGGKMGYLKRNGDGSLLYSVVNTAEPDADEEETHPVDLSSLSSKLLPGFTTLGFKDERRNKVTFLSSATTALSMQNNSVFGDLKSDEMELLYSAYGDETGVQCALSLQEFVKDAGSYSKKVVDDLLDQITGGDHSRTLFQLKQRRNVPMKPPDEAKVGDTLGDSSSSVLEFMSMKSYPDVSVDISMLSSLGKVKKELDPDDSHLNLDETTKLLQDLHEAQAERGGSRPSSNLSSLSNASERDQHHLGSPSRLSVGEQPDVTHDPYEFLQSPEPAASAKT

Row | IC50 | SMILES
1 | < 10 nM | CNC(=O)N1CCc2c(-c3cc(OC)c(CN4CCN(CCC5CCN(c6ccc7c(c6)C(=O)N(C6CCC(=O)NC6=O)C7=O)CC5)C(C)C4)c(OC)c3)cn(C)c(=O)c2C1 (centres unmarked) [Compound D100]
2 | < 10 nM | CNC(=O)N1CCc2c(-c3cc(OC)c(CN4[C@H](C)CN(CCC5CCN(c6ccc7c(c6)C(=O)N(C6CCC(=O)NC6=O)C7=O)CC5)C[C@@H]4C)c(OC)c3)cn(C)c(=O)c2C1 (some centres unmarked) [Compound D141]
3 | ≥ 1000 nM | COc1cc(-c2cn(C)c(=O)c3c2CCN(C(=O)NC2CCC24CCN(CCCOc2ccc5c(c2)C(=O)N(C2CCC(=O)NC2=O)C5=O)CC4)C3)cc(OC)c1CN(C)C (centres unmarked) [Compound D237]
4 | < 10 nM | CNC(=O)N1CCc2c(-c3cc(OC)c(CN4CCN(CCC5CCN(c6ccc7c(c6)C(=O)N(C6CCC(=O)NC6=O)C7=O)CC5)C(C#N)C4)c(OC)c3)cn(C)c(=O)c2C1 (centres unmarked) [Compound D93]
5 | 100 to 1000 nM | COc1cc(-c2cn(C)c(=O)c3c2CCN(C(=O)NCC2CC4(C2)CN(CCCOc2ccc5c(c2)C(=O)N(C2CCC(=O)NC2=O)C5=O)C4)C3)cc(OC)c1CN(C)C (centres unmarked) [Compound D194]
6 | < 10 nM | COc1cc(-c2cn(C)c(=O)c3c2CCN(C(=O)NC2CC4(CCN(CCOc5ccc6c(c5)C(=O)N(C5CCC(=O)NC5=O)C6=O)CC4)C2)C3)cc(OC)c1CN(C)C (centres unmarked) [Compound D224]
7 | 100 to 1000 nM | CNC(=O)N1CCc2c(-c3cc(OC)c(CN4CC(S(=O)(=O)NCCOc5ccc6c(c5)C(=O)N(C5CCC(=O)NC5=O)C6=O)C4)c(OC)c3)cn(C)c(=O)c2C1 (centres unmarked) [Compound D279]
8 | < 10 nM | COc1cc(-c2cn(C)c(=O)c3c2CCN(C(=O)NCC2COC4(CCN(c5ccc6c(c5)C(=O)N(C5CCC(=O)NC5=O)C6=O)CC4)C2)C3)cc(OC)c1CN(C)C (centres unmarked) [Compound D121]
9 | < 10 nM | COc1cc(-c2cn(C)c(=O)c3c2CCN(C(=O)NCC2CC4(C2)CN(c2ccc5c(c2)C(=O)N(C2CCC(=O)NC2=O)C5=O)C4)C3)cc(OC)c1CN(C)C (centres unmarked) [Compound D115]
10 | < 10 nM | CNC(=O)N1CCc2c(-c3cc(OC)c(CN4CCC(CCN(C)C5CCN(c6ccc7c(c6)C(=O)N(C6CCC(=O)NC6=O)C7=O)C5)CC4)c(OC)c3)cn(C)c(=O)c2C1 (centres unmarked) [Compound D197]
11 | 10 to 100 nM | CNC(=O)N1CCc2c(-c3cc(OC)c(CN4CC5CC4CC5CN4CCN(c5ccc6c(c5)C(=O)N(C5CCC(=O)NC5=O)C6=O)CC4)c(OC)c3)cn(C)c(=O)c2C1 (centres unmarked) [Compound D129]
12 | ≥ 1000 nM | COc1cc(-c2cn(C)c(=O)c3c2CN(C(=O)N(C)C)CC3)cc(OC)c1CN(C)CCOCCN1CCN(c2ccc3c(c2)C(=O)N(C2CCC(=O)NC2=O)C3=O)CC1 (centres unmarked) [Compound D298]
13 | < 10 nM | CNC(=O)N1CCc2c(-c3cc(OC)c(CN4CC(CN5CCC6(CC5)CN(c5ccc7c(c5)C(=O)N(C5CCC(=O)NC5=O)C7=O)C6)C4)c(OC)c3)cn(C)c(=O)c2C1 (centres unmarked) [Compound D109]
14 | < 10 nM | CNC(=O)N1CCc2c(-c3cc(OC)c(CN4CCC(CCN5CC6(C5)CN(c5ccc7c(c5)C(=O)N(C5CCC(=O)NC5=O)C7=O)C6)CC4)c(OC)c3)cn(C)c(=O)c2C1 (centres unmarked) [Compound D199]
15 | 10 to 100 nM | COc1cc(-c2cn(C)c(=O)c3c2CCN(C(=O)NCCN2CCC4C2CN4c2ccc4c(c2)C(=O)N(C2CCC(=O)NC2=O)C4=O)C3)cc(OC)c1CN(C)C (centres unmarked) [Compound D184]
16 | 100 to 1000 nM | COc1cc(-c2cn(C)c(=O)c3c2CCN(C(=O)NCCN2CCC4(CCN(c5ccc6c(c5)C(=O)N(C5CCC(=O)NC5=O)C6=O)C4)C2)C3)cc(OC)c1CN(C)C (centres unmarked) [Compound D190]

Continued, compound first:

Row | SMILES | IC50
17 | CNC(=O)N1CCc2c(-c3cc(OC)c(CN4CCC(CCN5CCN(c6cc(F)c7c(c6)C(=O)N(C6CCC(=O)NC6=O)C7=O)CC5)CC4)c(OC)c3)cn(C)c(=O)c2C1 (centres unmarked) [Compound D86] | < 10 nM
18 | CNC(=O)N1CCc2c(-c3cc(OC)c(CN4CCC(F)(CN5CCN(c6ccc7c(c6)C(=O)N(C6CCC(=O)NC6=O)C7=O)CC5)CC4)c(OC)c3)cn(C)c(=O)c2C1 (centres unmarked) [Compound D147] | < 10 nM
19 | CNC(=O)N1CCc2c(-c3cc(OC)c(CN4CCC(CCCN5CCN(C6CCC(=O)NC6=O)C(=O)C5)CC4)c(OC)c3)cn(C)c(=O)c2C1 (centres unmarked) [Compound D67] | 100 to 1000 nM
20 | CNC(=O)N1CCc2c(-c3cc(OC)c(CN4CCN(c5nn(C6CCC(=O)NC6=O)c(=O)n5C)CC4)c(OC)c3)cn(C)c(=O)c2C1 (centres unmarked) [Compound D62] | ≥ 1000 nM
21 | CNC(=O)N1CCc2c(-c3cc(OC)c(CN(C)CC45CC(C(=O)NCCCCCOc6ccc7c(c6)C(=O)N(C6CCC(=O)NC6=O)C7=O)(C4)C5)c(OC)c3)cn(C)c(=O)c2C1 (centres unmarked) [Compound D286] | 100 to 1000 nM
22 | [2H]C([2H])([2H])n1cc(-c2cc(OC)c(CN3CCC(CN4CCC5(CC4)CC(Oc4ccc6c(c4)C(=O)N(C4CCC(=O)NC4=O)C6=O)C5)CC3)c(OC)c2)c2c(c1=O)CN(C(=O)NC)CC2 (centres unmarked) [Compound D44] | < 10 nM
23 | CNC(=O)N1CCc2c(-c3cc(OC)c(CN4CCC(CCN5CCN(c6cc7c(cc6F)C(=O)N(C6CCC(=O)NC6=O)C7)CC5)CC4)c(OC)c3)cn(C)c(=O)c2C1 (centres unmarked) [Compound D84] | < 10 nM
24 | CNC(=O)N1CCc2c(-c3cc(OC)c(CN4CCC(CCN5CCC(c6ccc7c(c6)CN(C6CCC(=O)NC6=O)C7=O)CC5)CC4)c(OC)c3)cn(C)c(=O)c2C1 (centres unmarked) [Compound D68] | < 10 nM
25 | CNC(=O)N1CCc2c(-c3cc(OC)c(CN4CCN(CCN5CCC(c6ccc7c(c6)C(=O)N(C6CCC(=O)NC6=O)C7)CC5)CC4)c(OC)c3)cn(C)c(=O)c2C1 (centres unmarked) [Compound D71] | < 10 nM
26 | CNC(=O)N1CCc2c(-c3cc(OC)c(CN4CCC(CCN5CCN(c6ccc7c(c6F)C(=O)N(C6CCC(=O)NC6=O)C7=O)CC5)CC4)c(OC)c3)cn(C)c(=O)c2C1 (centres unmarked) [Compound D87] | < 10 nM
27 | CNC(=O)N1CCc2c(-c3cc(OC)c(CN4CCC5(CC4)CC(Oc4ccc6c(c4)C(=O)N(C4CCC(=O)NC4=O)C6=O)C5)c(OC)c3)cn(C)c(=O)c2C1 (centres unmarked) [Compound D183] | < 10 nM
28 | CNC(=O)N1CCc2c(-c3cc(OC)c(CN4CC5(CC(N6CCN(c7ccc8c(c7)C(=O)N(C7CCC(=O)NC7=O)C8=O)CC6)C5)C4)c(OC)c3)cn(C)c(=O)c2C1 (centres unmarked) [Compound D146] | < 10 nM
29 | CNC(=O)N1Cc2c(-c3cc(OC)c(CN4CCC(CCN5CCN(c6ccc7c(c6)C(=O)N(C6CCC(=O)NC6=O)C7=O)CC5)CC4)c(OC)c3)cn(C)c(=O)c2C1 (centres unmarked) [Compound D299] | < 10 nM
30 | CNC(=O)N1CCc2c(-c3cc(OC)c(CN4CC5(CC(N)C5)C4)c(OC)c3)cn(C)c(=O)c2C1 [Compound B22] | ≥ 1000 nM

Same assay, conditions: SYO-1 cells, 6 hours, Table 6A

Row | IC50 | SMILES
31 | > 1000 nM | COc1cc(-c2cn(C)c(=O)c3c2CCN(C(=O)NCCOCCOCCNc2cccc4c2CN(C2CCC(=O)NC2=O)C4=O)C3)cc(OC)c1CN(C)C (centres unmarked) [Compound D5, 5-[4-[(dimethylamino)methyl]-3,5-dimethoxyphenyl]-N-[2-[2-(2-[[2-(2,6-dioxopiperidin-3-yl)-1-oxo-3H-isoindol-4-yl]amino]ethoxy)ethoxy]ethyl]-7-methyl-8-oxo-3,4-dihydro-1H-2,7-naphthyridine-2-carboxamide formic acid]
32 | > 1000 nM | CNC(=O)N1CCc2c(-c3cc(OC)c(CN(C)CC(=O)NCCOCCOc4cccc5c4C(=O)N(C4CCC(=O)NC4=O)C5=O)c(OC)c3)cn(C)c(=O)c2C1 (centres unmarked) [Compound D13, 5-(4-[[([[2-(2-[[2-(2,6-dioxopiperidin-3-yl)-1,3-dioxoisoindol-4-yl]oxy]ethoxy)ethyl]carbamoyl]methyl)(methyl)amino]methyl]-3,5-dimethoxyphenyl)-N,7-dimethyl-8-oxo-3,4-dihydro-1H-2,7-naphthyridine-2-carboxamide]

Same assay, conditions: SYO-1 cells, 6 hours, Table 6C

Row | IC50 | SMILES
33 | < 10 nM | COc1cc(-c2cn(C)c(=O)c3c2CCN(C(=O)NCC(F)F)C3)cc(OC)c1CN1CCC(CN2CCC3(CC2)CN(c2ccc4c(c2)C(=O)N(C2CCC(=O)NC2=O)C4)C3)CC1 (centres unmarked) [Compound D336]
34 | ≥ 1000 nM | COc1cc(-c2cn(C)c(=O)c3c2CCN(C(=O)NCC(F)F)C3)cc(OC)c1CN1CCN(CCC2CCN(c3ccc4c(c3)C(=O)N(C3CCC(=O)NC3=O)C4)CC2)CC1(C)C (centres unmarked) [Compound D313]
35 | ≥ 1000 nM | CNC(=O)N1CCc2c(-c3cc(OC)c(CN4CCN(CCC5CCN(c6ccc7c(c6)C(=O)N(C6CCC(=O)NC6=O)C7=O)CC5)CC4)c(OC)c3)c(C)n(C)c(=O)c2C1 (centres unmarked) [Compound D337]
36 | < 10 nM | [2H]C([2H])([2H])n1cc(-c2cc(OC)c(CN3[C@H](C)CN(CCC4CCN(c5ccc6c(c5)C(=O)N(C5CCC(=O)NC5=O)C6)CC4)C[C@H]3C)c(OC)c2)c2c(c1=O)CN(C(=O)NC)CC2 (some centres unmarked) [Compound D319]
37 | < 10 nM | COc1cc(-c2cn(C)c(=O)c3c2CCC3)cc(OC)c1-c1ccc2c(c1)C(=O)N(C1CCC(=O)NC1=O)C2 (centres unmarked) [Compound D374]
38 | < 10 nM | CNC(=O)N1CCc2c(-c3cc(OC)c(CN4CC(C(N5CCC6(CC5)CN(c5ccc7c(c5)C(=O)N(C5CCC(=O)NC5=O)C7)C6)C(F)(F)F)C4)c(OC)c3)cn(C)c(=O)c2C1 (centres unmarked) [Compound D334]
39 | < 10 nM | COc1cc(-c2cn(C)c(=O)c3c2CCN(C(=O)NCC(F)F)C3)cc(OC)c1CN1CCN(CCC2CCN(c3ccc4c(c3)CN(C3CCC(=O)NC3=O)C4=O)CC2)CC12CC2 (centres unmarked) [Compound D311]
40 | < 10 nM | [2H]C([2H])([2H])n1cc(-c2cc(OC)c(CN3[C@H](C)CN(CCC4CCN(c5ccc6c(c5)CN(C5CCC(=O)NC5=O)C6=O)CC4)C[C@H]3C)c(OC)c2)c2c(c1=O)CN(C(=O)NC)CC2 (some centres unmarked) [Compound D318]
41 | < 10 nM | CCc1cc(-c2cn(C)c(=O)c3c2CCN(C(=O)NC)C3)cc(OC)c1CN1CCN(CCC2CCN(c3ccc4c(c3)C(=O)N(C3CCC(=O)NC3=O)C4)CC2)CC1 (centres unmarked) [Compound D327]
42 | < 10 nM | COc1cc(-c2cn(C)c(=O)c3c2COC3)cc(OC)c1CN1CCN(c2ccc3c(c2)C(=O)N(C2CCC(=O)NC2=O)C3=O)CC1 (centres unmarked) [Compound D373]
43 | < 10 nM | COc1cc(-c2cn(C)c(=O)c3c2COC3)cc(OC)c1CN1CCC2(CC1)CN(c1ccc3c(c1)CN(C1CCC(=O)NC1=O)C3=O)C2 (centres unmarked) [Compound D359]
44 | < 10 nM | COc1cc(-c2cn(C)c(=O)c3c2CCN(C(=O)NCC(F)F)C3)cc(OC)c1CN1CCN(CCC2CCN(c3ccc4c(c3)C(=O)N(C3CCC(=O)NC3=O)C4)CC2)CC1 (centres unmarked) [Compound D344]
